{"source": "patent US20240165097A1", "about": "“PHARMACEUTICAL COMPOSITION FOR THE TREATMENT OF ALZHEIMER'S DISEASE OR DEMENTIA” (Heptares Therapeutics Limited, priority 2021, published 2024)", "test_system": "patients with mild-to-moderate AD", "assay": "Example D: safety and tolerability, adjunctive to donepezil 10 mg per day, 4 weeks", "type": "in vivo, human", "details": "for Abdominal pain incidence / Accidental overdose incidence / Decreased lymphocyte count incidence / Decreased white blood cell count incidence / Diarrhoea incidence / Fatigue incidence / Headache incidence / Hyperhidrosis incidence / Lymphopenia incidence / Nausea incidence / Number of TEAEs / SAE incidence / TEAE Severity: Mild / TEAE Severity: Moderate / TEAE Severity: Severe / TEAE incidence / TEAE leading to discontinuation incidence / Treatment-related TEAE incidence / Urinary tract infection incidence / Viral upper respiratory tract infection incidence: randomised dose; for TEAE incidence during maintenance (Days 16-28) / TEAE incidence during titration (Days 1-15): Day 16 dose received", "method": "The study was an outpatient study conducted across 18 centres in Poland, Czech Republic, Spain, and Slovakia (NCT03456349, registered at clinicaltrials.gov). Patients were assessed for eligibility during a 42-day screening period and randomised equally to either placebo or a HTL0018318 target dose of 5 mg, 15 mg, or 25 mg per day (FIG. 5A). HTL0018318 was titrated to the target dose during a 2-week titration period (FIG. 5B); investigators could maintain or reduce the dose to limit tolerability/safety issues throughout this period. The study was conducted in accordance with the principles of the Declaration of Helsinki, the International Council for Harmonisation good clinical practice guidelines, and according to all appropriate country regulatory requirements. Relevant independent ethics committees provided approval, and all patients (or their caregiver) provided written informed consent.\nThe primary endpoint of this study was to evaluate the safety and tolerability of HTL0018318. Safety and tolerability were assessed via the incidence and severity of treatment-emergent adverse events (TEAEs), and via evaluation during study visits of vital signs (including blood pressure [BP] and heart rate [HR]), electrocardiogram (ECG) measurements, physical and neurological examinations, laboratory haematology, clinical chemistry and urinalysis.\nSafety was the primary endpoint and was assessed at all visits (screening, baseline, Day 1, Day 6±1, Day 11±1, Day 16±1, Day 28±1, and Day 35±2 [follow-up]) based on: spontaneously reported treatment-emergent adverse events (TEAEs); scheduled physical and neurological examinations; vital sign measurements (body temperature, heart rate [HR], systolic and diastolic BP [SBP and DBP]); 12-lead ECG recordings; and clinical laboratory safety panel. The C-SSRS was administered at baseline and on Day 28±1. TEAEs were coded using the Medical Dictionary for Regulatory Activities (MedDRA) Version 20.\nAll safety analyses used the safety set (SAF; randomised dose). The SAF (randomised dose) included all randomised patients who received at least one dose of the study drug; treatment group assignment was based on the initial randomised dose. All efficacy analyses were considered exploratory and used the full analysis set (FAS). The FAS included all randomised patients with at least one post-baseline efficacy measurement; treatment group assignment was based on the initial randomised dose. All summaries and analyses of PK data used the pharmacokinetic set (PKS). The PKS included all randomised patients with valid PK assessments; treatment group assignment was based on actual dose received.\nBP and HR were measured in triplicate, both supine and standing, in the same arm throughout the study. Standing BP and HR were measured after 3 minutes of standing, and supine BP and HR after 5 minutes of lying down. Measurements were repeated if clinically significant or machine/equipment errors occurred. Out-of-range BP or HR measurements were repeated at the investigator's discretion. Any confirmed clinically significant vital sign measurements were recorded as AEs. If the following measurements were obtained, instructions for additional monitoring, or stopping dosing were to be followed: • SBP>170 mmHg; DBP>110 mmHg • SBP or DBP increase >30% from Day 1 pre-dose level.\nStatistical evaluation was performed using Statistical analysis software (SAS®, SAS Institute, Cary, NC). Changes from baseline in vital signs were analysed using a mixed model for repeated measures with fixed effects for baseline, treatment, time-point and treatment by time-point interaction. The exploratory PD endpoints were analysed using an analysis of covariance with change from baseline as the dependent variable, and baseline and treatment as covariates. The least square means (LSM) for each dose (and difference from placebo) are presented with the 90% CI, P-value, and ES. […]", "key": {"[1]": {"details": "two highest doses (15 and 25 mg)"}}, "note": "Marks after values point to notes of the source that are not given here."}
{"smiles": "CCOC(=O)N1C2CCC1CC(N1CCC3(CC1)CNC(=O)C3)C2", "note": "(stereo not shown) [HTL0018318, ethyl 3-(3-oxo-2,8-diazaspiro[4.5]dec-8-yl)-8-azabicyclo[3.2.1]octane-8-carboxylate]", "values": [{"measurement": "Abdominal pain incidence", "setting": "5 mg (n = 15)", "result": "1 (6.7) n (%)"}, {"measurement": "Accidental overdose incidence", "setting": "5 mg (n = 15)", "result": "1 (6.7) n (%)"}, {"measurement": "Decreased lymphocyte count incidence", "setting": "5 mg (n = 15)", "result": "0 n (%)"}, {"measurement": "Decreased white blood cell count incidence", "setting": "5 mg (n = 15)", "result": "0 n (%)"}, {"measurement": "Diarrhoea incidence", "setting": "5 mg (n = 15)", "result": "1 (6.7) n (%)"}, {"measurement": "Fatigue incidence", "setting": "5 mg (n = 15)", "result": "0 n (%)"}, {"measurement": "Headache incidence", "setting": "5 mg (n = 15)", "result": "1 (6.7) n (%)"}, {"measurement": "Hyperhidrosis incidence", "setting": "5 mg (n = 15)", "result": "0 n (%)"}, {"measurement": "Lymphopenia incidence", "setting": "5 mg (n = 15)", "result": "0 n (%)"}, {"measurement": "Nausea incidence", "setting": "5 mg (n = 15)", "result": "1 (6.7) n (%)"}, {"measurement": "Number of TEAEs", "setting": "5 mg (n = 15)", "result": 18, "unit": "n"}, {"measurement": "SAE incidence", "setting": "5 mg (n = 15)", "result": "0 n (%)"}, {"measurement": "TEAE Severity: Mild", "setting": "5 mg (n = 15)", "result": "7 (46.7) n (%)"}, {"measurement": "TEAE Severity: Moderate", "setting": "5 mg (n = 15)", "result": "1 (6.7) n (%)"}, {"measurement": "TEAE Severity: Severe", "setting": "5 mg (n = 15)", "result": "1 (6.7) n (%)"}, {"measurement": "TEAE incidence", "setting": "5 mg (n = 15)", "result": "8 (53.3) n (%)"}, {"measurement": "TEAE leading to discontinuation incidence", "setting": "5 mg (n = 15)", "result": "1 (6.7)^d n (%)"}, {"measurement": "Treatment-related TEAE incidence", "setting": "5 mg (n = 15)", "result": "4 (26.7) n (%)"}, {"measurement": "Urinary tract infection incidence", "setting": "5 mg (n = 15)", "result": "1 (6.7) n (%)"}, {"measurement": "Viral upper respiratory tract infection incidence", "setting": "5 mg (n = 15)", "result": "1 (6.7) n (%)"}, {"measurement": "TEAE incidence during maintenance (Days 16-28)", "setting": "5 mg (n = 17)", "result": "4 (23.5) n (%)"}, {"measurement": "TEAE incidence during titration (Days 1-15)", "setting": "5 mg (n = 17)", "result": "8 (47.1) n (%)"}, {"measurement": "TEAE incidence during maintenance (Days 16-28)", "setting": "10 mg (n = 1)", "result": "0 n (%)"}, {"measurement": "TEAE incidence during titration (Days 1-15)", "setting": "10 mg (n = 1)", "result": "1 (100) n (%)"}, {"measurement": "Abdominal pain incidence", "setting": "15 mg (n = 14)", "result": "0 n (%)"}, {"measurement": "Accidental overdose incidence", "setting": "15 mg (n = 14)", "result": "1 (7.1) n (%)"}, {"measurement": "Decreased lymphocyte count incidence", "setting": "15 mg (n = 14)", "result": "1 (7.1) n (%)"}, {"measurement": "Decreased white blood cell count incidence", "setting": "15 mg (n = 14)", "result": "1 (7.1) n (%)"}, {"measurement": "Diarrhoea incidence", "setting": "15 mg (n = 14)", "result": "0 n (%)"}, {"measurement": "Fatigue incidence", "setting": "15 mg (n = 14)", "result": "0 n (%)"}, {"measurement": "Headache incidence", "setting": "15 mg (n = 14)", "result": "3 (21.4) n (%)"}, {"measurement": "Hyperhidrosis incidence", "setting": "15 mg (n = 14)", "result": "2 (14.3) n (%)"}, {"measurement": "Lymphopenia incidence", "setting": "15 mg (n = 14)", "result": "1 (7.1) n (%)"}, {"measurement": "Nausea incidence", "setting": "15 mg (n = 14)", "result": "1 (7.1) n (%)"}, {"measurement": "Number of TEAEs", "setting": "15 mg (n = 14)", "result": 16, "unit": "n"}, {"measurement": "SAE incidence", "setting": "15 mg (n = 14)", "result": "0 n (%)"}, {"measurement": "TEAE Severity: Mild", "setting": "15 mg (n = 14)", "result": "8 (57.1) n (%)"}, {"measurement": "TEAE Severity: Moderate", "setting": "15 mg (n = 14)", "result": "1 (7.1) n (%)"}, {"measurement": "TEAE Severity: Severe", "setting": "15 mg (n = 14)", "result": "0 n (%)"}, {"measurement": "TEAE incidence", "setting": "15 mg (n = 14)", "result": "8 (57.1) n (%)"}, {"measurement": "TEAE leading to discontinuation incidence", "setting": "15 mg (n = 14)", "result": "1 (7.1)^e n (%)"}, {"measurement": "Treatment-related TEAE incidence", "setting": "15 mg (n = 14)", "result": "7 (50.0) n (%)"}, {"measurement": "Urinary tract infection incidence", "setting": "15 mg (n = 14)", "result": "0 n (%)"}, {"measurement": "Viral upper respiratory tract infection incidence", "setting": "15 mg (n = 14)", "result": "0 n (%)"}, {"measurement": "TEAE incidence during maintenance (Days 16-28)", "setting": "15 mg (n = 16)", "result": "2 (12.5) n (%)"}, {"measurement": "TEAE incidence during titration (Days 1-15)", "setting": "15 mg (n = 16)", "result": "8 (50.0) n (%)"}, {"measurement": "TEAE incidence during maintenance (Days 16-28)", "setting": "25 mg (n = 11)", "result": "2 (18.2) n (%)"}, {"measurement": "TEAE incidence during titration (Days 1-15)", "setting": "25 mg (n = 11)", "result": "6 (54.5) n (%)"}, {"measurement": "Abdominal pain incidence", "setting": "25 mg (n = 16)", "result": "0 n (%)"}, {"measurement": "Accidental overdose incidence", "setting": "25 mg (n = 16)", "result": "0 n (%)"}, {"measurement": "Decreased lymphocyte count incidence", "setting": "25 mg (n = 16)", "result": "1 (6.3) n (%)"}, {"measurement": "Decreased white blood cell count incidence", "setting": "25 mg (n = 16)", "result": "1 (6.3) n (%)"}, {"measurement": "Diarrhoea incidence", "setting": "25 mg (n = 16)", "result": "1 (6.3) n (%)"}, {"measurement": "Fatigue incidence", "setting": "25 mg (n = 16)", "result": "2 (12.5) n (%)"}, {"measurement": "Headache incidence", "setting": "25 mg (n = 16)", "result": "3 (18.8) n (%)"}, {"measurement": "Hyperhidrosis incidence", "setting": "25 mg (n = 16)", "result": "0 n (%)"}, {"measurement": "Lymphopenia incidence", "setting": "25 mg (n = 16)", "result": "1 (6.3) n (%)"}, {"measurement": "Nausea incidence", "setting": "25 mg (n = 16)", "result": "0 n (%)"}, {"measurement": "Number of TEAEs", "setting": "25 mg (n = 16)", "result": 26, "unit": "n"}, {"measurement": "SAE incidence", "setting": "25 mg (n = 16)", "result": "0 n (%)"}, {"measurement": "TEAE Severity: Mild", "setting": "25 mg (n = 16)", "result": "9 (56.3) n (%)"}, {"measurement": "TEAE Severity: Moderate", "setting": "25 mg (n = 16)", "result": "4 (25.0) n (%)"}, {"measurement": "TEAE Severity: Severe", "setting": "25 mg (n = 16)", "result": "0 n (%)"}, {"measurement": "TEAE incidence", "setting": "25 mg (n = 16)", "result": "11 (68.8) n (%)"}, {"measurement": "TEAE leading to discontinuation incidence", "setting": "25 mg (n = 16)", "result": "0 n (%)"}, {"measurement": "Treatment-related TEAE incidence", "setting": "25 mg (n = 16)", "result": "5 (31.3) n (%)"}, {"measurement": "Urinary tract infection incidence", "setting": "25 mg (n = 16)", "result": "1 (6.3) n (%)"}, {"measurement": "Viral upper respiratory tract infection incidence", "setting": "25 mg (n = 16)", "result": "1 (6.3) n (%)"}, {"measurement": "serious TEAEs or deaths", "setting": "5, 15, 25 mg", "result": "no serious TEAEs or deaths"}, {"measurement": "tolerability", "setting": "5-25 mg adjunctive to donepezil", "result": "generally well tolerated"}, {"measurement": "orthostatic BP or HR", "setting": "across doses", "result": "no significant changes"}, {"measurement": "physical or neurological examination findings, laboratory abnormalities, risk of suicide", "setting": "across doses", "result": "no clinically significant physical or neurological examination findings, or laboratory abnormalities"}, {"measurement": "maximum mean elevations in SBP and DBP above placebo", "setting": "all doses, at Tmax, Days 1, 6, 11", "result": "5-10 mmHg"}, {"measurement": "patients who discontinued treatment due to TEAEs", "setting": "one on 5 mg, one on 15 mg", "result": "Two"}, {"measurement": "incidences of cholinergic TEAEs (abdominal pain, diarrhoea, fatigue, nausea)", "setting": "[1]", "result": "0-13%"}, {"measurement": "maximum incidences of cholinergic TEAEs", "setting": "[1]", "result": "7-13%"}]}
